Experimental data as given in patent US20240116862A1, “SULFUR-CONTAINING LIPIDS” (THE UNIVERSITY OF BRITISH COLUMBIA, priority 2021, published 2024).

Experiments:
Factor VII = experiment: In vivo analysis of Factor VII (FVII) silencing using LNP-siRNA systems; settings: 0.3 mg/kg LNP-siFVII intravenous, mice, 24 h, FIG. 6
Method: FVII knockdown study were performed as previously described.^3 In brief, LNP-siRNA were administered intravenously into WT mice (Charles River Laboratories, Wilmington, MA). Animals were euthanized after 24 h, blood was collected, serum was separated from whole blood using Microtainer Serum Separator tubes (Becton Dickinson, Franklin Lakes, NJ), and the residual serum FVII levels were determined. All procedures were approved by the Animal Care Committee at the University of British Columbia and were performed in accordance with guidelines established by the Canadian Council on Animal Care.
The graph depicts residual Factor VII following intravenous administration of various doses of the LNP-siFVII (see Materials and Methods above).

[1] = Physicochemical characteristics of LNPs comprising mRNA and sulfur lipid (dynamic light scattering, Ribogreen entrapment)
Method: (§1) LNP-mRNA systems were prepared as previously described (Kulkarni, J. A. et al. ACS Nano 12, 4787-4795 (2018); and Kulkarni, J. A. et al. Nanoscale 11, 9023-9031 (2019), each of which is incorporated herein by reference). Briefly, lipid components (ionizable cationic lipid, cholesterol, DSPC, and PEG-lipid) at appropriate ratios were dissolved in ethanol to a concentration of 10 mM total lipid. Luciferase encoding mRNA was dissolved in 25 mM sodium acetate pH 4 buffer to achieve an amine-to-phosphate (N/P) ratio of 6. The two solutions were mixed through a T-junction mixer at a total flow rate of 20 mL/min, and a flow rate ratio of 3:1 v/v (corresponding to 15:5 mL/min aqueous:organic phase). The resulting suspension was subsequently dialyzed against PBS pH 7.4. siRNAs were dissolved in 25 mM sodium acetate pH 4 buffer to achieve an amine-to-phosphate (N/P) ratio of 3. The two solutions were mixed through a T-junction mixer at a total flow rate of 20 mL/min, and a flow rate ratio of 3:1 v/v (corresponding to 15:5 mL/min aqueous:organic phase). The resulting suspension was subsequently dialyzed against PBS pH 7.4.
(§2) The hydrodynamic diameter and size distribution of LNP-mRNA and LNP-siRNA systems were analyzed by dynamic light scattering using a Malvern Zetasizer Nano ZS. Data presented as number-weighted average size. Lipid concentrations were measured using the Cholesterol E Total-Cholesterol assay (Wako Diagnostics, Richmond, VA). RNA concentration and entrapment were measured using the Quant-iT Ribogreen RNA assay as described elsewhere (Kulkarni, J. A. et al. ACS Nano 12, 4787-4795 (2018); and Kulkarni, J. A. et al. Nanoscale 11, 9023-9031 (2019)).
LNPs were prepared comprising ionizable cationic sulfur-containing lipid/DSPC/cholesterol/PEG-lipid at molar ratios of 50/10/38.5/1.5 and mRNA (at N/P ratio of 6) as described in the Materials and Methods. The size, PDI and entrapment percentage were determined as set out in the Materials and Methods and the results are shown in Table 2 below. The data are based on n≥3 experiments and values reported are means±SD. […]

[2] = Physicochemical characteristics of lipid nanoparticle (LNP) entrapping siRNA (dynamic light scattering, Ribogreen entrapment, apparent pKa); settings: for Size: number-weighted average, mean of n≥3; for Entrapment: siRNA entrapment, LNP sulfur lipid/DSPC/cholesterol/PEG-lipid 50/10/38.5/1.5, N/P 3
Method: as §1, §2
LNPs were prepared composed of ionizable cationic sulfur-containing lipid/DSPC/cholesterol/PEG-lipid at molar ratios of 50/10/38.5/1.5 and siRNA (at N/P ratio of 3) as described in the above Methods and Materials. The data are based on n≥3 experiments and values reported are means±SD.
Compound 13 (MF019; see Example 1) produced siRNA formulations having desirable physicochemical characteristics as shown in Table 3 below. The polydispersity index (PDI) of the resulting nanoparticles was <0.1, with an average LNP size ˜45 nm.

HepG2 cells = experiment: In vitro analysis of luciferase expression using LNP-mRNA systems; format: cell-based; settings: LNP-mRNA (firefly luciferase) at 0.125, 0.25, 0.5 and 1 μg/mL, 24 hours post treatment, versus KC2 LNP
Method: To assess LNP-mRNA efficacy in vitro, HepG2 cells were seeded at 8,000 cells/well in 96-well plates and cultured in DMEM supplemented with 10% FBS. LNP systems entrapping luciferase mRNA were added at various concentrations and luciferase expression was analyzed 24 hours post-treatment using the Steady-Glo Luciferase kit (Promega, Madison, WI).
The in vitro gene expression efficacy of LNP systems entrapping mRNA encoding for firefly luciferase was assessed. HepG2 cells were treated at different doses (0.125, 0.25, 0.5 and 1 μg/mL) using the above LNP-mRNA systems. Luciferase expression was analyzed 24 hours post treatment. Ionizable cationic lipid used was either KC2 (DLin-KC2-DMA) or compound 13 (MF019; see Example 1). In each case, the RLU was higher for compound 13 (MF019) than for KC2.

[3] = LNP sulfur lipid/DSPC/cholesterol/PEG-lipid 50/10/38.5/1.5, siRNA, N/P 3

PDI ([1]; LNP sulfur lipid/DSPC/cholesterol/PEG-lipid 50/10/38.5/1.5, mRNA, N/P 6): 0.054
Size ([1]; LNP sulfur lipid/DSPC/cholesterol/PEG-lipid 50/10/38.5/1.5, mRNA, N/P 6, number-weighted average, mean of n≥3): 79 nm
Entrapment ([1]; mRNA entrapment, LNP sulfur lipid/DSPC/cholesterol/PEG-lipid 50/10/38.5/1.5, N/P 6): >93%
PDI [2, 3]: 0.028
pKa [2, 3]: 6.41
Size [2, 3]: 43 nm
Size ([2]; LNP sulfur lipid/DSPC/cholesterol/PEG-lipid 50/10/38.5/1.5, siRNA, N/P 3, listed as Compound 13): ~45 nm
polydispersity index (PDI) ([2]; LNP with siRNA, N/P 3): < 0.1
nucleic acid entrapment ([2]; formulated in a lipid nanoparticle, nucleic acid not specified): above 93%
Entrapment [2]: >93%
Entrapment ([2]; listed as Compound 13): > 93%
SMILES: CCCCCSCSCCCCCCCCC(CCCCCCCCSCSCCCCC)OC(=O)CCCN(C)C [compound 13, 6,8,26,28-tetrathiatritriacontan-17-yl 4-(dimethylamino)butanoate]
Factor VII knock down (residual serum FVII) (Factor VII): almost complete knock down
Luciferase expression (RLU) compared with KC2 (HepG2 cells): higher
